Test results reported in US20050276838A1, “Composition and method for viral inhibition” (priority 2003, published 2005).
Where two headings read alike, the source gives them in different places.

Columns and labels:
MA-104 cells = type: cell-based, Rhesus monkey
Method: (§1) MA-104 cells of epithelial morphology were obtained from American Type Culture Collection and were originally derived from Rhesus monkey embryonic kidney. The cells were cultured at 37° C. in a humidified incubator and in an atmosphere of 5% CO2, in Minimal Essential Medium with Earle's balanced salt solution (2 mM glutamine, 1 mM sodium pyruvate, 0.1 mM non-essential amino acids and 1.5 g/L sodium bicarbonate) supplemented with 10% fetal bovine serum from Hyclone, Logan, Utah. The cells were passaged twice a week at a split ratio of 1:4.
(§2) MTT Viability Assays were conducted in a Promega CellTiter 96® Non-Radioactive Cell Kit (Cat # G400) obtained from Promega, Madison, Wis. and used according to manufacturer's instructions.
(§3) Test compounds were prepared by dissolving each compound at 20-μg/mL final concentration in incomplete MA-104 media (Minimal Essential Medium with Earle's balanced salt solution). The compounds were sterilized by filtration through a 0.45-micron filter. The filter-sterilized stock was stored frozen at less than −20° C.
(§4) Virus Inhibition Assay: Virus strain Wa (1:2 dilution from stock) was activated in the presence of 5 μg/mL trypsin and incubated with 1, 10 or 100 μg/mL test compound in serum-free medium at 37° C. for 30 minutes. The activated virus was then diluted 1:5 in serum-free medium containing test compound at the same concentration (to bring the trypsin concentration to 1 μg/mL), added to MA-104 cells, and serially diluted on microtiter plates (5-fold series). The diluent contained 1 μg/mL trypsin and the indicated amount of test compound. After the virus was adsorbed at 37° C. for 1 hour, the virus innoculum was removed, and the media was replaced with serum-free medium containing 1 μg/mL trypsin and the indicated amount of test compound. Cultures were incubated at 37° C. for 3 days, and then cell viability was assessed with the Promega MTT assay following manufacturer's instructions. Each plate contained a dilution series of virus not treated with test compound and each plate contained cells exposed to test compound without virus. All samples were tested in triplicate. Absorbance at 570 nm was determined on a SpectraMax microplate reader (Molecular Devices) equipped with SoftMax Pro (v 3.1.2) data analysis software. The mean absorbance of triplicate determinations, the standard deviation, and the % CV (standard deviation/mean* 100) were calculated. The Q test was used to remove outliers (Anderson, Robert L. 1987 in Practical Statistics for Analytical Chemists, page 31-33, Table 7, Appendix D). Data were fit to a 4-parameter curve using SoftMax Pro software. The curve equation is y=((A−D)/(1+(x/C)^B))[…] which defines a sigmoid shaped curve; A is the lower asymptote as X approaches zero; D is the upper plateau as X approaches infinity; B is the slope in the linear portion of the curve; and C is the ED50.
(§5) Test compound and activated Rotavirus were diluted in serum free medium and added to five wells of MA-104 cells. Another 5 wells on the same microtiter plate were exposed to test compound in serum free medium containing trypsin. After three days incubation, cell viability was assessed with the MTT metabolism assay. Data are expressed as percent of control without virus or compound added.

[1] = tested on: Human Rotavirus strain Wa; assay: Virus Inhibition Assay: MTT viability of MA-104 cells infected with Rotavirus in the presence of test compound; type: cell-based; conditions: for MA-104 Infection with Lactulose (Mean OD): MTT absorbance 570 nm, 3 days, mean ± sd, triplicate; for Fate of MA-104 cells treated with virus and compound (MTT metabolism assay): in the presence of virus, Table 2; for MA-104 Cell Viability After Exposure to Test Compound with Rotavirus, (+) Virus: percent of control without virus or compound added, MTT after three days, five wells, compound concentration not given
Method: as §1
Human Rotavirus strain Wa was obtained from the American Type Culture Collection. A virus stock was diluted 1:5 in media, aliquoted to 0.2 mL per vial and stored at approximately −80° C. The human Rotavirus strain, Wa (TC adapted) (Catalog No. VR-2018), originally isolated from a diarrheic stool from a human patient (Wyatt et al., Science 207: 189-191, 1980; U.S. Pat. No. 4,341,870), is Serotype 1 (G1) for VP7.
as §2, §3, §4, §5

[2] = tested on: Human Rotavirus strain Wa; conditions: previous results referred to in the text; cited from earlier work

With OC[C@H]1O[C@@H](O[C@@H]2[C@@H](CO)O[C@](O)(CO)[C@H]2O)[C@H](O)[C@@H](O)[C@H]1O [Lactulose, 4-O-β-D-galactopyranosil-D-fructofuranose] the “MA-104 Cell Viability After Exposure to Test Compound without Rotavirus, (−) Virus” value (MA-104 cells; Rhesus monkey, 3 days) was 134%, the “MA-104 cells, no virus (Mean OD)” value (MA-104 cells; Rhesus monkey, 3 days, 1 μg/mL) was 0.372 ± 0.093 and the “MA-104 cells, no virus (Mean OD)” value (MA-104 cells; Rhesus monkey, 3 days, 10 μg/mL) was 0.419 ± 0.070. For the same compound, the “MA-104 cells, no virus (Mean OD)” value (MA-104 cells; Rhesus monkey, 3 days, 100 μg/mL) was 0.612 ± 0.192, the “MA-104 Infection with Lactulose (Mean OD)” value (“MA-104 Infection” for short) ([1]; Lactulose 1 μg/mL, virus (diln)-1 10) was 0.072 ± 0.007 and the “MA-104 Infection” value ([1]; Lactulose 1 μg/mL, virus (diln)-1 50) was 0.132 ± 0.010. For the same compound, the “MA-104 Infection” value ([1]; Lactulose 1 μg/mL, virus (diln)-1 250) was 0.428 ± 0.092, the “MA-104 Infection” value ([1]; Lactulose 1 μg/mL, virus (diln)-1 1250) was 0.756 ± 0.036 and the “MA-104 Infection” value ([1]; Lactulose 1 μg/mL, virus (diln)-1 6250) was 0.743 ± 0.064. The “MA-104 Infection” value ([1]; Lactulose 1 μg/mL, virus (diln)-1 31250) was 0.782 ± 0.049, the “MA-104 Infection” value ([1]; Lactulose 1 μg/mL, virus (diln)-1 156250) was 0.804 ± 0.031 and the “MA-104 Infection” value ([1]; Lactulose 10 μg/mL, virus (diln)-1 10) was 0.087 ± 0.002. For the same compound, the “MA-104 Infection” value ([1]; Lactulose 10 μg/mL, virus (diln)-1 50) was 0.315 ± 0.168, the “MA-104 Infection” value ([1]; Lactulose 10 μg/mL, virus (diln)-1 250) was 0.541 ± 0.330 and the “MA-104 Infection” value ([1]; Lactulose 10 μg/mL, virus (diln)-1 1250) was 0.869 ± 0.088. For the same compound, the “MA-104 Infection” value ([1]; Lactulose 10 μg/mL, virus (diln)-1 6250) was 0.808 ± 0.085, the “MA-104 Infection” value ([1]; Lactulose 10 μg/mL, virus (diln)-1 31250) was 0.820 ± 0.082 and the “MA-104 Infection” value ([1]; Lactulose 10 μg/mL, virus (diln)-1 156250) was 0.844 ± 0.030. For the same compound, the “MA-104 Infection” value ([1]; Lactulose 100 μg/mL, virus (diln)-1 10) was 0.133 ± 0.045, the “MA-104 Infection” value ([1]; Lactulose 100 μg/mL, virus (diln)-1 50) was 0.849 ± 0.061 and the “MA-104 Infection” value ([1]; Lactulose 100 μg/mL, virus (diln)-1 250) was 0.906 ± 0.081. For the same compound, the “MA-104 Infection” value ([1]; Lactulose 100 μg/mL, virus (diln)-1 1250) was 0.971 ± 0.060, the “MA-104 Infection” value ([1]; Lactulose 100 μg/mL, virus (diln)-1 6250) was 1.012 ± 0.153 and the “MA-104 Infection” value ([1]; Lactulose 100 μg/mL, virus (diln)-1 31250) was 0.951 ± 0.038. The “MA-104 Infection” value ([1]; Lactulose 100 μg/mL, virus (diln)-1 156250) was 0.942 ± 0.040, the “Protection of MA-104 cells from virus killing” value ([1]; MA-104 cells infected with Rotavirus, lactulose 1, 10, 100 μg/mL) was “protected MA-104 cells from virus killing in a dose dependent manner” and the “Fate of MA-104 cells treated with virus and compound (MTT metabolism assay)” value (shortened to “Fate of MA-104 cells treated”) [1] was “remained viable”. For the same compound, the “MA-104 Cell Viability After Exposure to Test Compound with Rotavirus, (+) Virus” value (“MA-104 Cell Viability After Exposure … (+) Virus” below) [1] was 119%.
In the case of Sialyllactose, the “MA-104 Cell Viability After Exposure to Test Compound without Rotavirus, (−) Virus” value (MA-104 cells) is reported as 100%, the “Fate of MA-104 cells treated” value [1] is reported as “significant cell kill due to virus infection” and the “MA-104 Cell Viability After Exposure … (+) Virus” value [1] is reported as 17%.
In the case of arabinogalactan, the “MA-104 Cell Viability After Exposure to Test Compound without Rotavirus, (−) Virus” value (MA-104 cells) is reported as 102%, the “Fate of MA-104 cells treated” value [1] is reported as “significant cell kill due to virus infection” and the “MA-104 Cell Viability After Exposure … (+) Virus” value [1] is reported as 19%.
With galactooligosaccharide the “MA-104 Cell Viability After Exposure to Test Compound without Rotavirus, (−) Virus” value (MA-104 cells) was 116%.
For kappa-carageenen [Kappa Carageenen], the “MA-104 Cell Viability After Exposure to Test Compound without Rotavirus, (−) Virus” value (MA-104 cells) is listed as 112%, the “Inhibition of Rotavirus according to previous results / previous data” value [2] is listed as “inhibits Rotavirus infection” and the “Fate of MA-104 cells treated” value [1] is listed as “remained viable”. For the same compound, the “MA-104 Cell Viability After Exposure … (+) Virus” value [1] was 119%.
